Data from patent US20250313563A1, “GLYCOGEN SYNTHASE KINASE 3 INHIBITORS AND USES THEREOF” (The Broad Institute, Inc., priority 2022, published 2025).
Read-outs that look alike come from different tables or passages of the source.

Legend:
[1] = biological target: GSK3α (GST-full length GSK3α) (Homo sapiens (Human), UniProt P49840); assay: GSK3α TR-FRET kinase assay; format: biochemical
Outline: (§1)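 Compound preincubated 30 min, then 1 nM GST-full-length GSK3α or GSK3b run 100 min at ambient temperature with 200 nM biotinylated, S645-prephosphorylated glycogen synthase 631-650 peptide in Tris pH 7.5, MgCl2, DTT, BSA, 1% DMSO. ATP 4 μM (α) or 2 μM (β), or 1 mM. EDTA-quenched; Tb-anti-pSer641/streptavidin-d2 TR-FRET 665/615 ratio gave IC50.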

[2] = biological target: GSK3b (GST-full length GSK3b) (Homo sapiens (Human), UniProt P49841); assay: GSK3b TR-FRET kinase assay; format: biochemical
GSK3b (GST-full length GSK3b), sequence (P49841 whole entry): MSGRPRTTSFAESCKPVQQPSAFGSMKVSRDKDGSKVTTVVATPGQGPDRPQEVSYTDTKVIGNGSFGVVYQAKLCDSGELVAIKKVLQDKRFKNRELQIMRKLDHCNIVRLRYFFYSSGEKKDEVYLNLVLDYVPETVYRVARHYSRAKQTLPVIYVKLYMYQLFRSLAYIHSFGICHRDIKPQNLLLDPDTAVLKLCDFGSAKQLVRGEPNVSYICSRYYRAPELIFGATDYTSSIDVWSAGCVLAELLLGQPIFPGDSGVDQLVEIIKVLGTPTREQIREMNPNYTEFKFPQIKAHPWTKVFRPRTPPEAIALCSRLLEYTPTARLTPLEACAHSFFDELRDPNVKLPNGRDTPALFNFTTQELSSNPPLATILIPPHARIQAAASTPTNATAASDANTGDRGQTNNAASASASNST
Outline: as §1

[3] = 1 nM GSK3α, 4 μM ATP, 30 minute preincubation, geometric mean, read-out: GSK3-A TR-FRET BIOCHEMICAL (TR-FRET), GMean, IC50
[4] = 1 nM GSK3b, 2 μM ATP, 30 minute preincubation, geometric mean, read-out: GSK3-B TR-FRET BIOCHEMICAL (TR-FRET), GMean, IC50
[5] = read-out: GSK3-A (TR-FRET 1 mM ATP), GMean, IC50, 1 mM ATP, geometric mean
[6] = read-out: GSK3-B (TR-FRET 1 mM ATP), GMean, IC50, 1 mM ATP, geometric mean
[7] = 1 nM GSK3α, 4 μM ATP, 30 minute preincubation, read-out: GSK3-A TR-FRET BIOCHEMICAL (TR-FRET), IC50
[8] = 1 nM GSK3b, 2 μM ATP, 30 minute preincubation, read-out: GSK3-B TR-FRET BIOCHEMICAL (TR-FRET), IC50

GSK3α (GST-full length GSK3α), sequence (P49840 whole entry): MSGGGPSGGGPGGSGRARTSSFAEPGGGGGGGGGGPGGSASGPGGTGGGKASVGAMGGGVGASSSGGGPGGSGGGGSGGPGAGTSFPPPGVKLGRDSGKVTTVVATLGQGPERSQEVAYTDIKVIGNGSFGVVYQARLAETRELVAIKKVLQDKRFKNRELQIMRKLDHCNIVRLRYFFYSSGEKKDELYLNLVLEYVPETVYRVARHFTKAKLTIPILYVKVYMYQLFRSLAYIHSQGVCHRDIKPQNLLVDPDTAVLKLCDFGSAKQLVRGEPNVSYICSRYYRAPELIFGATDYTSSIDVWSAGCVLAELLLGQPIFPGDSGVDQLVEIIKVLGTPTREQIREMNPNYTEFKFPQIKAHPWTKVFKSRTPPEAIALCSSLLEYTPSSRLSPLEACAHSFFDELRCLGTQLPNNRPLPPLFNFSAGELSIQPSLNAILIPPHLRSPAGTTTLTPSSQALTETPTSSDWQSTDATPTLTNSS

Row | IC50 [1, 3] | IC50 [2, 4] | Structure (SMILES) | further results
1 | ≤ 100 nM | 100 to 1000 nM | CCC1(c2cccc(S(=O)(=O)CC3CC3)c2)C2=C(CC(C)(C)NC2=O)Nc2n[nH]cc21 (stereo not drawn) [Compound 948177] | –
2 | ≤ 100 nM | ≤ 100 nM | CCC1(c2cccc(S(=O)(=O)CC3CC3)c2)C2=C(CC(C)(C)NC2=O)Nc2n[nH]c(C(F)(F)F)c21 (stereo not drawn) [Compound 948179] | –
3 | ≤ 100 nM | ≤ 100 nM | CCC1(c2cccc(-c3cncn3C)c2)C2=C(CC(C)(C)NC2=O)Nc2n[nH]c(C(F)(F)F)c21 (stereo not drawn) [Compound 948180] | –
4 | 100 to 1000 nM | 100 to 1000 nM | CC[C@]1(c2cccc(-c3ccnc(C)c3C)c2)C2=C(CC(C)(C)NC2=O)Nc2n[nH]c(C(F)(F)F)c21 [Compound 948181] | –
5 | ≤ 100 nM | 100 to 1000 nM | CC[C@@]1(c2cccc(C(F)(F)F)c2)C2=C(CCN(c3ccc(F)cc3)C2=O)Nc2n[nH]cc21 [Compound 948224] | –
6 | ≤ 100 nM | ≤ 100 nM | CCC1(c2cccc(-c3ccnc(C)c3F)c2)C2=C(CC(C)(C)NC2=O)Nc2n[nH]c(C(F)(F)F)c21 (stereo not drawn) [Compound 948297] | –
7 | ≤ 100 nM | 1000 to 5000 nM | CCC1(c2cccc(-c3ccnc(C)c3)c2)C2=C(CC(C)(C)NC2=O)Nc2n[nH]c(F)c21 (stereo not drawn) [Compound 948299] | –
8 | ≤ 100 nM | ≤ 100 nM | CCC1(c2cccc(-c3cn(C)nc3C)c2)C2=C(CC(C)(C)N(C)C2=O)Nc2n[nH]cc21 (stereo not drawn) [Compound 948304] | –
9 | ≤ 100 nM | 100 to 1000 nM | CC[C@]1(c2cccc(-c3ccnc(C)c3F)c2)C2=C(CC(C)(C)NC2=O)Nc2n[nH]cc21 [Compound 948306] | –
10 | ≤ 100 nM | ≤ 100 nM | CC[C@@]1(c2cccc(-c3ccnc4c3CCC4)c2)C2=C(CC(C)(C)NC2=O)Nc2n[nH]cc21 [Compound 948313] | IC50 [1, 5]: 100 to 1000 nM; IC50 [2, 6]: 1000 to 5000 nM
11 | 1000 to 5000 nM | > 5000 nM | CCc1cc(-c2cccc([C@]3(CC)C4=C(CC(C)(C)NC4=O)Nc4n[nH]cc43)c2)ccn1 [Compound 948360] | –
12 | > 5000 nM | > 5000 nM | CC[C@@]1(c2cccc(-c3ccnc4cc(Cl)ccc34)c2)C2=C(CC(C)(C)NC2=O)Nc2n[nH]cc21 [Compound 948362] | –
13 | > 5000 nM | > 5000 nM | CC[C@@]1(c2cccc(-c3ccnc(C)c3Cl)c2)C2=C(CC(C)(C)NC2=O)Nc2n[nH]cc21 [Compound 948369] | –
14 | 100 to 1000 nM | > 5000 nM | CCC1(c2cccc(C(F)(F)F)c2)C2=C(CCN(c3cncnc3)C2=O)Nc2n[nH]cc21 (stereo not drawn) [Compound 948380] | –

Second part, the compound before the results:

Row | Structure (SMILES) | IC50 [1, 3] | IC50 [2, 4] | further results
15 | CCC1(c2cccc(N(C)c3ncccn3)c2)C2=C(CC(C)(C)NC2=O)Nc2n[nH]c(C(F)(F)F)c21 (stereo not drawn) [Compound 948176] | ≤ 100 nM | ≤ 100 nM | –
16 | CC[C@]1(c2cccc(-c3ccnc(C)c3C)c2)C2=C(CC(C)(C)NC2=O)Nc2n[nH]cc21 [Compound 948184] | ≤ 100 nM | 100 to 1000 nM | IC50 [1, 5]: 100 to 1000 nM; IC50 [2, 6]: 1000 to 5000 nM
17 | CCC1(c2cccc(-c3ccnc(C)c3C)c2)C2=C(CC(C)(C)NC2=O)Nc2n[nH]c(C(F)(F)F)c21 (stereo not drawn) [Compound 948185] | ≤ 100 nM | ≤ 100 nM | IC50 [1, 5]: ≤ 100 nM; IC50 [2, 6]: ≤ 100 nM
18 | CCC1(c2cccc(-c3ccnc(C)c3C)c2)C2=C(CC(C)(C)NC2=O)Nc2n[nH]c(C)c21 (stereo not drawn) [Compound 948187] | ≤ 100 nM | ≤ 100 nM | –
19 | CCC1(c2cccc(C(F)(F)F)c2)C2=C(Nc3n[nH]cc31)c1ccccc1C2=O (stereo not drawn) [Compound 948205] | – | – | IC50 ([1]; 1 nM GSK3α, 4 μM ATP, 30 minute preincubation, Table 16, read-out: GSK3-A TR-FRET BIOCHEMICAL (TR-FRET), IC50): ≤ 100 nM; IC50 ([1]; GSK3-A (TR-FRET 1 mM ATP), GMean, IC50, 1 mM ATP, geometric mean): 100 to 1000 nM; IC50 ([2]; 1 nM GSK3b, 2 μM ATP, 30 minute preincubation, Table 16, read-out: GSK3-B TR-FRET BIOCHEMICAL (TR-FRET), IC50): ≤ 100 nM; IC50 ([2]; GSK3-B (TR-FRET 1 mM ATP), GMean, IC50, 1 mM ATP, geometric mean): 100 to 1000 nM
20 | Cc1cc(C)cc(C(=O)N2CC3(C2)CC2(CO3)C3=C(CC(C)(C)CC3=O)Nc3n[nH]cc32)c1 (stereo not drawn) [Compound 948222] | – | – | IC50 [1, 7]: 100 to 1000 nM; IC50 [2, 8]: 1000 to 5000 nM
21 | Cc1cc(C)cc(C(=O)N2CC3(C2)C[C@]2(CO3)C3=C(CC(C)(C)CC3=O)Nc3n[nH]cc32)c1 [Compound 948223] | – | – | IC50 [1, 7]: ≤ 100 nM; IC50 [1, 5]: 100 to 1000 nM; IC50 [2, 8]: ≤ 100 nM; IC50 [2, 6]: 100 to 1000 nM
22 | CC[C@]1(c2cccc(C(F)(F)F)c2)C2=C(CCN(c3ccc(F)cc3)C2=O)Nc2n[nH]cc21 [Compound 948225] | 1000 to 5000 nM | > 5000 nM | –
23 | CC[C@]1(c2cccc(C(F)(F)F)c2)C2=C(CCN(c3ccc(OC)cc3)C2=O)Nc2n[nH]cc21 [Compound 948227] | 1000 to 5000 nM | > 5000 nM | –
24 | CCC1(c2cccc(C(F)(F)F)c2)C2=C(CCN(c3ccc(C)cc3)C2=O)Nc2n[nH]cc21 (stereo not drawn) [Compound 948241] | ≤ 100 nM | 100 to 1000 nM | –
25 | CC1(C)CC(=O)C2=C(C1)Nc1n[nH]cc1C21CN(c2ccccc2)C1 [Compound 948298] | – | – | IC50 ([1]; 1 nM GSK3α, 4 μM ATP, 30 minute preincubation, Table 16, read-out: GSK3-A TR-FRET BIOCHEMICAL (TR-FRET)): ≤ 100 nM; IC50 ([2]; 1 nM GSK3b, 2 μM ATP, 30 minute preincubation, Table 16, read-out: GSK3-B TR-FRET BIOCHEMICAL (TR-FRET)): ≤ 100 nM
26 | CCC1(c2cccc(-c3cn(C)nc3C)c2)C2=C(CC(C)(C)NC2=O)Nc2n[nH]c(F)c21 (stereo not drawn) [Compound 948301] | ≤ 100 nM | ≤ 100 nM | –
27 | CCC1(c2cccc(-c3ccnc(C)c3)c2)C2=C(CC(C)(C)N(C)C2=O)Nc2n[nH]cc21 (stereo not drawn) [Compound 948302] | ≤ 100 nM | 100 to 1000 nM | –
28 | CCC1(c2cccc(S(=O)(=O)C3CC3)c2)C2=C(CC(C)(C)N(C)C2=O)Nc2n[nH]cc21 (stereo not drawn) [Compound 948303] | ≤ 100 nM | ≤ 100 nM | –
29 | CCC1(c2cccc(C(F)F)c2)C2=C(CC(C)(C)NC2=O)Nc2n[nH]c(C(F)(F)F)c21 (stereo not drawn) [Compound 948305] | ≤ 100 nM | ≤ 100 nM | –
30 | CC[C@]1(c2cccc(-c3cn[nH]c3)c2)C2=C(CC(C)(C)NC2=O)Nc2n[nH]c(C(F)(F)F)c21 [Compound 948307] | ≤ 100 nM | ≤ 100 nM | IC50 [1, 5]: ≤ 100 nM; IC50 [2, 6]: ≤ 100 nM
31 | CCC1(c2cccc(-c3ccnc4c3CCC4)c2)C2=C(CC(C)(C)NC2=O)Nc2n[nH]cc21 (stereo not drawn) [Compound 948308] | > 5000 nM | > 5000 nM | –
32 | CC[C@@]1(c2cccc(-c3cn[nH]c3)c2)C2=C(CC(C)(C)NC2=O)Nc2n[nH]c(C(F)(F)F)c21 [Compound 948312] | ≤ 100 nM | 100 to 1000 nM | –
33 | CCC1(c2cccc(-c3cn(C)nc3C)c2)C2=C(CC(C)(C)NC2=O)Nc2n[nH]c(C(F)(F)F)c21 (stereo not drawn) [Compound 948314] | ≤ 100 nM | ≤ 100 nM | IC50 [1, 5]: ≤ 100 nM; IC50 [2, 6]: ≤ 100 nM
34 | CC(=O)N1CC[C@]2(C1)C[C@]1(CO2)C2=C(CC(C)(C)CC2=O)Nc2n[nH]cc21 [Compound 948319] | – | – | IC50 [1, 7]: ≤ 100 nM; IC50 [2, 8]: 100 to 1000 nM
35 | CC(=O)N1CC[C@@]2(C1)C[C@]1(CO2)C2=C(CC(C)(C)CC2=O)Nc2n[nH]cc21 [Compound 948320] | – | – | IC50 [1, 7]: 100 to 1000 nM; IC50 [2, 8]: 1000 to 5000 nM
36 | CCC1(c2cccc(-c3ccnn3C)c2)C2=C(CC3(CCCOC3)NC2=O)Nc2n[nH]cc21 (stereo not drawn) [Compound 948366] | 1000 to 5000 nM | > 5000 nM | –
37 | CCC1(c2cccc(-c3ccncc3C)c2)C2=C(CC3(CCOCC3)NC2=O)Nc2n[nH]cc21 (stereo not drawn) [Compound 948367] | 100 to 1000 nM | > 5000 nM | –
38 | CC[C@]1(c2cccc(-c3c(F)cncc3Cl)c2)C2=C(CC(C)(C)NC2=O)Nc2n[nH]cc21 [Compound 948371] | ≤ 100 nM | ≤ 100 nM | IC50 [1, 5]: 100 to 1000 nM; IC50 [2, 6]: 100 to 1000 nM
39 | CCC1(c2cccc(C(F)(F)F)c2)C2=C(CCN(c3cncnc3)C2=O)Nc2n[nH]cc21 (stereo not drawn) [Compound 948379] | ≤ 100 nM | 100 to 1000 nM | IC50 [1, 5]: 100 to 1000 nM; IC50 [2, 6]: > 5000 nM
